# According to US7737253B2, “Human cancer stem cell culture compositions comprising Erbb2 variants and methods of use thereof” (BresaGen, Inc., priority 2006, dated 2010):
# “Also recorded” adds a separate entry of the source.
# Legend:
# Erbb2/3 heterodimers = Erbb2/3 heterodimers (Homo sapiens, UniProt P21860); details: read-out: binding affinity; cited from earlier work
# Erbb2/4 heterodimers = Erbb2/4 heterodimers (Homo sapiens, UniProt Q15303); details: read-out: binding affinity; cited from earlier work
# BG01v cells = test: Growth of BG01v cells in defined media with Erbb2 TK inhibitors; type: cell-based, human; details: absence of an exogenous Erbb2 activating growth factor
# Excerpt: This confirms that endogenous Erbb2 signaling is critical for the self-renewal of BG01v cells and represents a major difference between variant and normal hESCs.
# hESCs = test: hESC proliferation and cell count after treatment with AG825; type: cell-based, human; details: for cell count: average of triplicate counts
# Procedure: Based on the above studies described in Examples 13 and 14, further experiments were performed to quantify the number of hESCs and determine the level of inhibition of Erbb2 using AG825. […] Values reported were taken from an average of the triplicate (3) cell counts. The initial cell count was performed similarly. AG825 inhibited Erbb2 tyrosine kinase activity, thereby inhibiting cell signaling, and effectively reducing and inhibiting HESC proliferation and growth by about at least 1, 2 or 3 orders of magnitude.
# ERBB2 (phospho-Y1248) = test: Western blot of ERBB2 phospho-Y1248 in BG01 hESCs; type: cell-based, human; details: BG01 hESCs starved overnight
# Procedure: BG01 hESCs were grown in DC-HAIF and then in media minus or starved of growth factors overnight, washed and then pulsed with either with heregulin (HRG) or not, or incubated with AG825 or not.
# All BG01 HESC cultures were first grown in defined conditioned-heregulin/Activin A/IGF1/FGF (DC-HAIF) and then in media starved of growth factors overnight e.g., no heregulin, Activin A, IGF1 and/or FGF. […]
# Cell lysates were prepared as per RTK blotting, separated by 4-20% gradient SDS-PAGE, blotted and detected with an immunoaffinity purified anti-ERBB2 (phospho-Y1248) antibody (Upstate/Millipore Cat#06229). The Erbb2 phospho-Y1248 antibody was used to quantify tyrosine phosphorylation of Erbb2 resulting from the interaction of heregulin with Erbb3 and/or ErbB4. […]
# Erbb2 tyrosine kinase = Erbb2 tyrosine kinase (Homo sapiens, UniProt P04626); details: cited from earlier work
# Erbb2 = test: Phospho-RTK antibody array, Erbb2 phosphorylation in BG01 and BG01v cells; type: cell-based, human; details: BG01 and BG01v cells starved overnight, then pulsed about 15 minutes with 10 ng/ml heregulin
# Procedure: (§1) (A) BG01 and BG01v cells were grown in defined condition-heregulin/Activin A/IGF-1/FGF (DC-HAIF) media. The hESCs were starved of growth factors overnight (“Starved”), or starved then pulsed with 10 ng/ml Heregulin (“HRG pulse”). Cell lysates were prepared and examined for phosphorylation of Erbb2 and Erbb3 by RTK blotting. (B) The spots were quantified, normalized against controls, and charted as normalized relative intensity. […] While at a lower overall intensity, a similar pattern was also observed in the starved conditions.
# (§2) Cells were maintained in steady state conditions in defined conditioned-heregulin/Activin A/IGF1/FGF (DC-HAIF), were incubated in media minus or starved of growth factors (e.g., no heregulin/Activin A/IGF1/FGF) overnight, or starved and then pulsed about 15 minutes with 10 ng/ml heregulin. Proteome Profiler™ human phospho-RTK antibody arrays (R&D Systems, Cat#ARY001) were used according to the manufacturer's instructions. […] The arrayed antibodies capture the extracellular domains of both phosphorylated and unphosphorylated RTKs, and bound phospho-RTKs were detected with a pan anti-phospho-tyrosine antibody conjugated to horseradish peroxidase (HRP) using chemiluminescence. X-ray film was scanned and spots were quantified using NTH-image (world wide web at rsb.info.nih.gov/nih-image/). […]
# Erbb3 = molecular target: T1, Erbb3 (Homo sapiens, UniProt P21860); test: Phospho-RTK antibody array, Erbb3 phosphorylation in BG01 and BG01v cells; type: cell-based; details: BG01 and BG01v cells starved overnight, then pulsed about 15 minutes with 10 ng/ml heregulin
# T1 construct: endogenous in cells; host or cells: BG01 and BG01v human embryonic stem cells
# Procedure: as §1, §2
# Erbb2Δ16 = molecular target: T2, Erbb2Δ16 (Homo sapiens, UniProt P04626, DEL634-649); details: cited from earlier work
# T2 construct: host or cells: transfected human cells / Erbb2Δ16 transgene over-expression (Castiglioni et al., 2006)
# wild type Erbb2 = molecular target: T3, wild type Erbb2 (Homo sapiens, UniProt P04626); details: cited from earlier work
# T3 construct: host or cells: transfected human cells (Castiglioni et al., 2006)
# [1] = system: Erbb2Δ16-expressing cells; details: unlike wild type Erbb2-transfectants; cited from earlier work
compound,measurement,setting,value
"HRG-β: neuregulin-β, EGF growth factor family member; cleaved ectodomain of neuregulin",Kd,Erbb2/3 heterodimers,< 1 nM
same,Kd,Erbb2/4 heterodimers,< 1 nM
"COc1cc(/C=C(\C#N)C(N)=O)cc(CSc2nc3ccccc3s2)c1O [AG825, Tyrphostin AG825]",growth of BG01v cells,BG01v cells,inhibit the growth
same,number of hESCs after treatment compared to DMSO and conditioned media (CM) control,hESCs,statistically significant decrease
same,cell count,"hESCs; Experiment 1, initial cell count 560 × 10^3, CM 1.99 × 10^6, DMSO 2.13 × 10^6, P = 0.005",406.6 × 10^3
same,cell count,"hESCs; Experiment 2, initial cell count 853.3 × 10^3, CM 2.77 × 10^6, DMSO 2.54 × 10^6, P = 0.007",433.3 × 10^3
same,proliferation of hESCs,hESCs; hESCs growing in CM,significantly inhibited proliferation
same,autophosphorylation of ERBB2 at Tyrosine-1248,"ERBB2 (phospho-Y1248); 15 minute pulse, 50 μM AG825 without or with 10 ng/ml HRG1β (lanes 2 and 4)",inhibited autophosphorylation; also recorded: inhibition of ERBB2 Y1248 phosphorylation
same,selectivity as inhibitor of the Erbb2 tyrosine kinase,Erbb2 tyrosine kinase,highly selective inhibitor
"HRG: Heregulin-β EGF domain (HRGβ, Peprotech), recombinant growth factor",Erbb2 phosphorylation detected by phospho-Y1248 antibody,ERBB2 (phospho-Y1248); 15 minute pulse with 10 ng/ml HRG1β (lane 3) or DC-HAIF media (lane 5),increased Erbb2 phosphorylation
same,phosphorylation of ERBB2,Erbb2,strong phosphorylation
same,phosphorylation of ERBB3,Erbb3,strong phosphorylation
Cc1cc(O)c2c(c1)C(=O)c1cc(O)cc(O)c1C2=O [emodin],growth of BG01v cells,BG01v cells,inhibit the growth
same,activation of Erbb2Δ16 transfectants,Erbb2Δ16,blocked activation
same,activation of wild type Erbb2 transfectants,wild type Erbb2,blocked activation
CC(C)(C)c1cc(/C=C(\C#N)C(N)=S)cc(C(C)(C)C)c1O [AG879],growth of BG01v cells,BG01v cells,inhibit the growth
COc1cc2ncnc(Nc3ccc(F)c(Cl)c3)c2cc1OCCCN1CCOCC1 [ZD1839],sensitivity of Erbb2Δ16-expressing cells to the drug,[1],low sensitivity
